This passage reports DSF results from patent US20260285857A1, “BICYCLIC AND HETEROCYCLIC AMIDE COMPOUNDS” (priority 2024, published 2026).

Molecules are shown by their SMILES.

The subject of one assay is immunoglobulin light chain protein WIL-FL T46L. Nature of the assay: Differential scanning fluorimetry (thermal shift) assay. Type of assay: binding. Conditions: Table A; temperature shift [Tm]compound-[Tm]vehicle; recombinant WIL-FL T46L.
Regarding `COC1CNCC1NC(=O)c1nc2c(C)cc(N3CC[C@](C)(c4ccccc4)C3)cn2n1` (stereo partly shown) [Compound 166], the DSF result is given as “***** (>2.5° C.=*****)”.

For the compound `C[C@]1(c2ccccc2)CCN(c2cc(CO)c3nc(C(=O)N4CCC5(CCN(c6ccnc(C(=O)O)c6)C5)C4)nn3c2)C1` (stereo partly shown) [Compound 334], the DSF entry was “***** (>2.5° C.=*****)”. `Cc1cc(N2CC[C@](C)(c3ccccc3)C2)cn2nc(C34CC(CO3)C4N3C(=O)NC(=O)C3(C)C)nc12` (stereo partly shown) [Compound 79]: the DSF result is on record as “***** (>2.5° C.=*****)”.

As for `Cc1cc(N2CC[C@](C)(c3ccccc3)C2)cn2nc(C(=O)N[C@H]3CC[C@H](O)C3)nc12` [Compound 105], the DSF result is reported as “***** (>2.5° C.=*****)”. As for `Cc1cc(N2CC[C@](C)(c3ccccc3)C2)cn2nc(C(=O)N3CC[C@@](C)(C(=O)O)C3)nc12` [Compound 126], the DSF entry is on record as “***** (>2.5° C.=*****)”. `Cc1cc(N2CC[C@](C)(c3ccccc3)C2)cn2nc(C(=O)N3CCC4(CCN(c5nc(C(=O)O)nn5C)C4)C3)nc12` (stereo partly shown) [Compound 234]: the DSF entry was “***** (>2.5° C.=*****)”. The same measure, in the same setting: then `Cc1cccc(C2CCC23CN(c2cc(C)c4nc(C(=O)N5CC[C@@]6(CCN(c7cccc(C(=O)O)n7)C6)C5)nn4c2)C3)c1` (stereo partly drawn) [Compound 17, 6-((5R)-7-(8-methyl-6-(5-(m-tolyl)-2-azaspiro[3.3]heptan-2-yl)-[1,2,4]triazolo[1,5-a]pyridine-2-carbonyl)-2,7-diazaspiro[4.4]nonan-2-yl)picolinic acid], with “***** (>2.5° C.=*****)”. As to `Cc1cc(N2CC3(CC[C@@H]3c3ccccc3)C2)cn2nc(C(=O)N3CC[C@@]4(CCN(c5cccc(C(=O)[O-])n5)C4)C3)nc12.[Li+]` [Compound 24B, lithium 6-((R)-7-(8-methyl-6-((R)-5-phenyl-2-azaspiro[3.3]heptan-2-yl)-[1,2,4]triazolo[1,5-a]pyridine-2-carbonyl)-2,7-diazaspiro[4.4]nonan-2-yl)picolinate], the DSF result is recorded as “***** (>2.5° C.=*****)”.

Take `CNC(=O)c1nc2c(CNC(C)=O)cc(N3CC[C@](C)(c4ccccc4)C3)cn2n1` [Compound 348]: the DSF result is given as “***** (>2.5° C.=*****)”. On to `COc1cccc([C@@]2(C)CCN(c3cc(C)c4nc(C(=O)N5CC[C@@]6(CCN(c7cccc(C(=O)O)n7)C6)C5)nn4c3)C2)c1` [Compound 409], for which the DSF result is recorded as “***** (>2.5° C.=*****)”.

Take `CNC(=O)c1nc2c(CN)cc(N3CC[C@](C)(c4ccccc4)C3)cn2n1` [Compound 335]: the DSF entry is “***** (>2.5° C.=*****)”. As to `Cc1cc(N2CC[C@](C)(c3ccccc3)C2)cn2nc(C(=O)NC3CCN(c4ccc(C(=O)O)nc4)C3)nc12` (stereo partly shown) [Compound 271], the DSF result is recorded as “***** (>2.5° C.=*****)”. As for `Cc1ccc([C@@]2(C)CCN(c3cc(C)c4nc(C(=O)N5C[C@@H]6CN(c7cccc(C(=O)O)n7)C[C@@H]6C5)nn4c3)C2)cc1` [Compound 414], the DSF entry is “***** (>2.5° C.=*****)”. As for `Cc1cc(N2CC[C@](C)(c3ccccc3)C2)cn2nc(C(=O)N3CC4(CCN4C(=O)c4cccc(C(=O)O)n4)C3)nc12` [Compound 215], the DSF result is “***** (>2.5° C.=*****)”. For the compound `Cc1cc(N2CC[C@](C)(c3ccccc3)C2)cn2nc(C34CC(CO3)C4Cn3cn[nH]c3=O)nc12` (stereo partly shown) [Compound 88], the DSF result was “***** (>2.5° C.=*****)”. `CC(=O)NC12COC(c3nc4c(C)cc(N5CC[C@](C)(c6ccccc6)C5)cn4n3)(C1)C2` [Compound 52]: the DSF entry is “***** (>2.5° C.=*****)”. For `Cc1cc(N2CC[C@](C)(c3ccccc3)C2)cn2nc(C(=O)N3CCC(OCC(=O)O)CC3)nc12` [Compound 182], the DSF result was “***** (>2.5° C.=*****)”. On to `Cc1cc(N2CCC(C)(C3CC4(CC4)C3)C2)cn2nc(C(=O)N3C[C@@H]4CN(c5cccc(C(=O)O)n5)C[C@@H]4C3)nc12` (stereo partly drawn) [Compound 23, 6-((3aR,6aS)-5-(8-methyl-6-(3-methyl-3-(spiro[2.3]hexan-5-yl)pyrrolidin-1-yl)-[1,2,4]triazolo[1,5-a]pyridine-2-carbonyl)hexahydropyrrolo[3,4-c]pyrrol-2(1H)-yl)picolinic acid], for which the DSF entry is “**** (>1.5-2.5° C.=****)”. With `COC(=O)CC1C2CN(C3CC4(CC(NC(=O)c5nc6c(C)cc(N7CC[C@](C)(c8ccccc8)C7)cn6n5)C4)C3)CC12` (stereo partly shown) [Compound 357], the DSF entry is reported as “***** (>2.5° C.=*****)”. Take `Cc1cc(N2CC[C@](C)(c3ccccc3)C2)cn2nc(C(=O)NCC34CCCN3CC(F)C4)nc12` (stereo partly shown) [Compound 171]: the DSF result is “***** (>2.5° C.=*****)”. For the compound `Cc1cc(N2CC[C@](C)(c3ccccc3)C2)cn2nc(C(=O)N(C)C3(C(=O)O)CC3)nc12` [Compound 164], the DSF entry is reported as “***** (>2.5° C.=*****)”.

Staying with this assay, now noted: Table B; temperature shift [Tm]compound-[Tm]vehicle; recombinant WIL-FL T46L.
In the case of `Cc1cc(N2CC[C@](C)(c3ccccc3)C2)cn2nc(C34CC(CO3)C4c3nc(NS(=O)(=O)CC(C)(C)C(=O)O)n[nH]3)nc12` (stereo partly shown) [Compound 564], the DSF entry is listed as “***** (>2.5° C.=*****)”. On to `Cc1cc(N2CC[C@](C)(c3ccccc3)C2)cn2nc(C34CC(C(=O)O)(CO3)C4c3nc(N)n[nH]3)nc12` (stereo partly drawn) [Compound 545, 5-(3-amino-1H-1,2,4-triazol-5-yl)-1-[8-methyl-6-[(3R)-3-methyl-3-phenyl-pyrrolidin-1-yl]-[1,2,4]triazolo[1,5-a]pyridin-2-yl]-2-oxabicyclo[2.1.1]hexane-4-carboxylic acid], for which the DSF result is given as “***** (>2.5° C.=*****)”.

Turning to `Cc1cc(N2CC[C@](C)(c3ccccc3)C2)cn2nc(C34CC(CO3)C4COC3CCN(c4ccnc(C(=O)O)c4)CC3)nc12` (stereo partly shown) [Compound 502], the DSF result is “***** (>2.5° C.=*****)”. Turning to `Cc1ncn(CC2C3COC2(c2nc4c(C)cc(OC[C@H](C)c5ccccc5)cn4n2)C3)n1` (stereo partly drawn) [Compound 487, 8-methyl-2-(5-((3-methyl-1H-1,2,4-triazol-1-yl)methyl)-2-oxabicyclo[2.1.1]hexan-1-yl)-6-((R)-2-phenylpropoxy)-[1,2,4]triazolo[1,5-a]pyridine], the DSF entry was “*** (>1-1.5° C.=***)”. As to `Cc1cc(N2CC[C@](C)(c3ccccc3)C2)cn2nc(C(=O)NC3CC4(C3)CN(C(=O)C35CC(C(=O)O)(C3)C5)C4)nc12` [Compound 681], the DSF result was “***** (>2.5° C.=*****)”. Turning to `Cc1cc(N2CC[C@](C)(c3ccccc3)C2)cn2nc(C(=O)N3CC[C@@]4(CCN(C(=O)CC(C)(O)C(=O)O)C4)C3)nc12` (stereo partly drawn) [Compound 731, 2-hydroxy-2-methyl-4-[(5R)-2-[8-methyl-6-[(3R)-3-methyl-3-phenyl-pyrrolidin-1-yl]-[1,2,4]triazolo[1,5-a]pyridine-2-carbonyl]-2,7-diazaspiro[4.4]nonan-7-yl]-4-oxo-butanoic acid], the DSF result is given as “***** (>2.5° C.=*****)”. `CCC1(c2ccccc2)CN(c2cc(C)c3nc(C45CC(CO)(CO4)C5c4nc(C)n[nH]4)nn3c2)C1` (stereo not shown) [Compound 579]: the DSF entry is reported as “**** (>1.5-2.5° C.=****)”.

For the compound `C[C@]1(c2ccccc2)CCN(c2cc(CO)c3nc(C(=O)N4CCC5(C4)CN(c4cccc(C(=O)O)n4)C5)nn3c2)C1` [Compound 618], the DSF result is on record as “***** (>2.5° C.=*****)”. On to `Cc1cc(N2CC[C@](C)(c3ccccc3)C2)cc2nc(C(=O)N3CC[C@@]4(CCN(c5cccc(C(=O)O)n5)C4)C3)oc12` [Compound 756, 6-[(5R)-2-[7-methyl-5-[(3R)-3-methyl-3-phenyl-pyrrolidin-1-yl]-1,3-benzoxazole-2-carbonyl]-2,7-diazaspiro[4.4]nonan-7-yl]pyridine-2-carboxylic acid], for which the DSF entry is reported as “**** (>1.5-2.5° C.=****)”. Take `Cc1cc(N2CC[C@](C)(c3ccccc3)C2)cn2nc(C(=O)NC3C4CC3N(c3cccc(C(=O)O)n3)C4)nc12` (stereo partly drawn) [Compound 697, 6-[5-[[8-methyl-6-[(3R)-3-methyl-3-phenyl-pyrrolidin-1-yl]-[1,2,4]triazolo[1,5-a]pyridine-2-carbonyl]amino]-2-azabicyclo[2.1.1]hexan-2-yl]pyridine-2-carboxylic acid]: the DSF result is recorded as “***** (>2.5° C.=*****)”. As for `Cc1n[nH]c([C@H]2[C@H]3CO[C@]2(c2nc4c(C)cc(N5CC[C@](C)(c6ccccc6)C5)cn4n2)C3)n1` [Compound 491, 8-methyl-6-[(3R)-3-methyl-3-phenyl-pyrrolidin-1-yl]-2-[(1R,4S,5R)-5-(3-methyl-1H-1,2,4-triazol-5-yl)-2-oxabicyclo[2.1.1]hexan-1-yl]-[1,2,4]triazolo[1,5-a]pyridine], the DSF result is “***** (>2.5° C.=*****)”. As to `Cc1cc(N2CC3(CCC3c3cccc(F)c3)C2)cn2nc(C(=O)N3C[C@@H]4CN(c5cccc(C(=O)O)n5)C[C@@H]4C3)nc12` (stereo partly shown) [Compound 739], the DSF result is recorded as “***** (>2.5° C.=*****)”. In the case of `COc1ccc(N2CCC3(CCN(C(=O)c4nc5c(C)cc(N6CC[C@](C)(c7ccccc7)C6)cn5n4)C3)C2)nc1C(=O)O` (stereo partly shown) [Compound 625], the DSF entry is given as “***** (>2.5° C.=*****)”. In the case of `Cc1cc(N2CC[C@](C)(c3ccccc3)C2)cn2nc(C34CC(CO3)C4Cc3nnn[nH]3)nc12` (stereo partly shown) [Compound 504], the DSF entry is “***** (>2.5° C.=*****)”.

Turning to `Cc1cc(N2CC[C@](C)(c3ccccc3)C2)cn2nc(C34CC(CO3)C4c3ncn[nH]3)nc12` (stereo partly shown) [Compound 494], the DSF entry was “***** (>2.5° C.=*****)”.

Consider `Cc1cc(N2CC[C@](C)(c3ccccc3)C2)cn2nc(C(=O)N3C[C@H](O)[C@@]4(CCN(c5cccc(C(=O)O)n5)C4)C3)nc12` [Compound 703, Mis6-[4-hydroxy-2-[8-methyl-6-[(3R)-3-methyl-3-phenyl-pyrrolidin-1-yl]-[1,2,4]triazolo[1,5-a]pyridine-2-carbonyl]-2,7-diazaspiro[4.4]nonan-7-yl]pyridine-2-carboxylic acid], for which the DSF result is recorded as “***** (>2.5° C.=*****)”. Consider `Cc1cc(N2CC[C@](C)(c3ccccc3)C2)cn2nc(C(=O)NC[C@@H]3CCCN3c3cccc(C(=O)O)n3)nc12` [Compound 689], for which the DSF entry is “***** (>2.5° C.=*****)”. For the compound `Cc1cc(N2CC[C@](C)(c3ccccc3)C2)cn2nc(C34CC(CO3)C4N3C[C@]4(CC[C@H](C(=O)O)CC4)NC3=O)nc12` (stereo partly shown) [Compound 525], the DSF result was “***** (>2.5° C.=*****)”. As to `Cc1cc(N2CC[C@](C)(c3ccccc3)C2)cn2nc(C(=O)N3CC[C@@]4(CCN(C(=O)C56CCC(C(=O)O)(C5)C6)C4)C3)nc12` [Compound 713], the DSF result is “***** (>2.5° C.=*****)”.
